Data set [1] can be described thus: Metabolic stability in cryopreserved beagle dog hepatocytes. The note with it: beagle, dog, cryopreserved hepatocytes, test compound 1 μM, 3 million cells per ml, 90 min incubation. Format: in vitro ADME. The protocol: (§1) The metabolic stability of the compounds of the invention was evaluated in-vitro using cryopreserved beagle dog hepatocytes, as described in more detail hereinafter in the Experimental and Preparations section.
(§2) The test compound (1 μM) was incubated with cryopreserved beagle dog hepatocytes at 3 million cells per ml, in 300 μL of Leibovitz's medium for a total period of 90 min. During this period, 25 μL aliquots were taken at 1, 10, 30, 50, 70 & 90 minutes and quenched in acetonitrile. Quenched samples were centrifuged to pellet the precipitated protein, and supernatant removed for LC-MS-MS (high performance liquid chromatography coupled to a tandem mass spectrometer) analysis to quantify the amount of the parent test compound remaining. The first order elimination rate constant (k) was determined from a plot of natural log of parent test compound remaining versus time, and used to calculate a metabolic stability half-life (T1/2), where T1/2=Ln2/k where k=elimination rate constant.

For data set [2], the system named is cryopreserved beagle dog hepatocytes. Described as above. It counts as in vitro ADME. The note with it: Example 2 versus tianeptine. The protocol: as §1, §2
The test system of data set [3] is hippocampal CA1 pyramidal neurones. The experiment in a line: Whole cell recording of EPSC amplitude in hippocampal slices. Format: cell-based, male Sprague-Dawley rats. The protocol: The stimulatory activity of the compounds of the invention on the central nervous system was evaluated in-vitro by recording the excitatory postsynaptic current (EPSC) amplitude in stimulated hippocampal CA1 pyramidal neurones from slices of male Sprague-Dawley rats, as described in more detail hereinafter in the Experimental and Preparations section.
Male Sprague-Dawley rats, 15 to 20 days old at the time of surgery, were used in this study. On the day of the experiment, animals were terminally anaesthetized using isofluorane, cervically dislocated, and decapitated. The brain was removed and 400 μm thick parasagittal brain slices prepared using a Leica VT1000S. Slices were maintained in an artificial cerebrospinal fluid (ACSF) of the following composition (in mM, aqueous solution): 127 NaCl; 1.9 KCl; 1.2 KH2PO4; 2.4 CaCl2; 1.3 MgCl2; 26 NaHCO3; and, 10 D-glucose, bubbled with a mixture of 95% O2/5% CO2, at room temperature for 1 hour after slicing before commencing electrophysiological recordings. […]

Data set [4] in a line: PPB (compound bound to proteins). The note with it: plasma.

A word on the half-life: it is the time in which the quantity being followed falls by half. A high value points to slow loss. The term fraction unbound denotes the share of the substance not bound to proteins or other matrix. A lower fraction unbound goes with little free substance.

Structures are written as SMILES.

`CN1c2ccccc2C(NCCCCOCC(=O)O)c2ccc(Cl)cc2S1(=O)=O` (stereo not drawn) [Example 2, 2-(4-((3-chloro-6-methyl-5,5-dioxido-6,11-dihydrodibenzo[c,f][1,2]thiazepin-11-yl)amino)butoxy)acetic acid]: the half-life at 1 μM in data set [1] (T1/2=Ln2/k) came out at 34.4 h. The hepatocyte CLint at 1 μM in data set [1] (read-out: Clint (intrinsic clearance)) is 0.3 µL/min/1e6 cells. Also, the “metabolic stability half life compared with tianeptine” value in data set [2] was “more than 10 times”. Besides, the “increase of control EPSC amplitude” value in data set [3] (10 μM bath applied, percentage of the control, mean±S.E.M (n=6)) is 224.67±34.27%. Also, the “effect on excitatory transmission in CA1 region of hippocampus (FIG. 1)” value in data set [3] (representative electrophysiological recording, 10 μM) is given as “facilitates excitatory transmission”. In addition, the fraction unbound in data set [4] amounted to 0.18.

Values taken from patent US9487492B2, “Dibenzothiazepine derivatives and their use in the treatment of CNS disorders” (NUMEDICUS LIMITED, priority 2011, dated 2016).
